In patent US12404285B2, “KRAS G12D proteolysis targeting chimeras” (PAQ Therapeutics Inc., priority 2022, dated 2025):

Biological target: T1, KRAS (G12D)-HiBit in AsPc-1-KRAS (G12D)-HiBit-KI cell (Homo sapiens, UniProt P01116, G12D)
T1 construct: host or cells: AsPc-1-KRAS (G12D)-HiBit-KI cells (knock-in line)
Assay: G12D HiBit assay
Format: cell-based
Details: 24 hours compound treatment, absolute DC50, read-out: Average PHA DC50
Method in brief: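 AsPc-1 cells with HiBiT knocked into KRAS G12D, seeded at 5×10^3/well and held overnight, then treated 24 h with 10-point 3-fold dilutions (300 nM to 0.015 nM). Lytic Nano-Glo HiBiT luminescence expressed as % of 0.1% DMSO control; absolute DC50 from curve fit.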

T1 sequence (P01116 1-188 isoform P01116-2 G12D): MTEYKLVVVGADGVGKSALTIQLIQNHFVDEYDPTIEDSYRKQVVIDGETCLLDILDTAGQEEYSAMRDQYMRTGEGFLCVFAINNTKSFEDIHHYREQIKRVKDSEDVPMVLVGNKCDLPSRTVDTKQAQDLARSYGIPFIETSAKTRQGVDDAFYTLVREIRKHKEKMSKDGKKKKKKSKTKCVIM

Compound	DC50
C#Cc1c(F)ccc2cccc(-c3ncc4c(N5CC6CCC(C5)N6)nc(OC[C@@]56CCCN5[C@H](COC(=O)N5CCC(Cn7cc(-c8ccc9c(c8)n(C)c(=O)n9C8CCC(=O)NC8=O)nn7)CC5)CC6)nc4c3F)c12 (stereo partly drawn) [Compound 94, [(3S,8S)-8-[[4-(3,8-Diazabicyclo[3.2.1]octan-3-yl)-7-(8-ethynyl-7-fluoro-1-naphthyl)-8-fluoro-pyrido[4,3-d]pyrimidin-2-yl]oxymethyl]-1,2,3,5,6,7-hexahydropyrrolizin-3-yl]methyl 4-[[4-[1-(2,6-dioxo-3-piperidyl)-3-methyl-2-oxo-benzimidazol-5-yl]triazol-1-yl]methyl]piperidine-1-carboxylate]	≥ 300 nM
C#Cc1c(F)ccc2cccc(-c3ncc4c(N5CC6CCC(C5)N6)nc(OC[C@@]56CCCN5[C@H](COC(=O)N5CCC(CCn7cc(-c8ccc9c(c8)n(C)c(=O)n9C8CCC(=O)NC8=O)nn7)CC5)CC6)nc4c3F)c12 (stereo partly drawn) [Compound 95, [(3S,8S)-8-[[4-(3,8-Diazabicyclo[3.2.1]octan-3-yl)-7-(8-ethynyl-7-fluoro-1-naphthyl)-8-fluoro-pyrido[4,3-d]pyrimidin-2-yl]oxymethyl]-1,2,3,5,6,7-hexahydropyrrolizin-3-yl]methyl 4-[2-[4-[1-(2,6-dioxo-3-piperidyl)-3-methyl-2-oxo-benzimidazol-5-yl]triazol-1-yl]ethyl]piperidine-1-carboxylate]	≥ 300 nM
C#Cc1c(F)ccc2cccc(-c3ncc4c(N5CC6CCC(C5)N6)nc(OC[C@@]56CCCN5[C@H](COC(=O)N5CCC(Cn7cc(-c8cccc9c8n(C)c(=O)n9C8CCC(=O)NC8=O)nn7)CC5)CC6)nc4c3F)c12 (stereo partly drawn) [Compound 96, [(3S,8S)-8-[[4-(3,8-Diazabicyclo[3.2.1]octan-3-yl)-7-(8-ethynyl-7-fluoro-1-naphthyl)-8-fluoro-pyrido[4,3-d]pyrimidin-2-yl]oxymethyl]-1,2,3,5,6,7-hexahydropyrrolizin-3-yl]methyl 4-[[4-[1-(2,6-dioxo-3-piperidyl)-3-methyl-2-oxo-benzimidazol-4-yl]triazol-1-yl]methyl]piperidine-1-carboxylate]	≥ 300 nM
C#Cc1c(F)ccc2cccc(-c3ncc4c(N5CC6CCC(C5)N6)nc(OC[C@@]56CCCN5[C@H](COC(=O)N5CCC(OC7CCN(c8ccc9c(c8)n(C)c(=O)n9C8CCC(=O)NC8=O)CC7)CC5)CC6)nc4c3F)c12 (stereo partly drawn) [Compound 98, [(3S,8S)-8-[[4-(3,8-Diazabicyclo[3.2.1]octan-3-yl)-7-(8-ethynyl-7-fluoro-1-naphthyl)-8-fluoro-pyrido[4,3-d]pyrimidin-2-yl]oxymethyl]-1,2,3,5,6,7-hexahydropyrrolizin-3-yl]methyl 4-[[1-[1-(2,6-dioxo-3-piperidyl)-3-methyl-2-oxo-benzimidazol-5-yl]-4-piperidyl]oxy]piperidine-1-carboxylate]	< 100 nM
C#Cc1c(F)ccc2cccc(-c3ncc4c(N5CC6CCC(C5)N6)nc(OC[C@@]56CCCN5[C@H](COC(=O)N5CCC(OC7CCN(c8cccc9c8n(C)c(=O)n9C8CCC(=O)NC8=O)CC7)CC5)CC6)nc4c3F)c12 (stereo partly drawn) [Compound 99, [(3S,8S)-8-[[4-(3,8-Diazabicyclo[3.2.1]octan-3-yl)-7-(8-ethynyl-7-fluoro-1-naphthyl)-8-fluoro-pyrido[4,3-d]pyrimidin-2-yl]oxymethyl]-1,2,3,5,6,7-hexahydropyrrolizin-3-yl]methyl 4-[[1-[1-(2,6-dioxo-3-piperidyl)-3-methyl-2-oxo-benzimidazol-4-yl]-4-piperidyl]oxy]piperidine-1-carboxylate]	< 100 nM
C#Cc1c(F)ccc2cccc(-c3ncc4c(N5CC6CCC(C5)N6)nc(OC[C@@]56CCCN5[C@H](COC(=O)N5CCC(CN7CC(Oc8cccc9c8n(C)c(=O)n9C8CCC(=O)NC8=O)C7)CC5)CC6)nc4c3F)c12 (stereo partly drawn) [Compound 100, [(3S,8S)-8-[[4-(3,8-diazabicyclo[3.2.1]octan-3-yl)-7-(8-ethynyl-7-fluoro-1-naphthyl)-8-fluoro-pyrido[4,3-d]pyrimidin-2-yl]oxymethyl]-1,2,3,5,6,7-hexahydropyrrolizin-3-yl]methyl 4-[[3-[1-(2,6-dioxo-3-piperidyl)-3-methyl-2-oxo-benzimidazol-4-yl]oxyazetidin-1-yl]methyl]piperidine-1-carboxylate]	< 100 nM
C#Cc1c(F)ccc2cccc(-c3ncc4c(N5CC6CCC(C5)N6)nc(OC[C@@]56CCCN5[C@H](COC(=O)N5CC(OCC7CCN(c8ccc9c(c8)n(C)c(=O)n9C8CCC(=O)NC8=O)CC7)C5)CC6)nc4c3F)c12 (stereo partly drawn) [Compound 101, [(3S,8S)-8-[[4-(3,8-Diazabicyclo[3.2.1]octan-3-yl)-7-(8-ethynyl-7-fluoro-1-naphthyl)-8-fluoro-pyrido[4,3-d]pyrimidin-2-yl]oxymethyl]-1,2,3,5,6,7-hexahydropyrrolizin-3-yl]methyl 3-[[1-[1-(2,6-dioxo-3-piperidyl)-3-methyl-2-oxo-benzimidazol-5-yl]-4-piperidyl]methoxy]azetidine-1-carboxylate]	< 100 nM
C#Cc1c(F)ccc2cccc(-c3ncc4c(N5CC6CCC(C5)N6)nc(OC[C@@]56CCCN5[C@H](COC(=O)N5CCC(COC7CN(c8ccc9c(c8)n(C)c(=O)n9C8CCC(=O)NC8=O)C7)CC5)CC6)nc4c3F)c12 (stereo partly drawn) [Compound 102, [(3S,8S)-8-[[4-(3,8-Diazabicyclo[3.2.1]octan-3-yl)-7-(8-ethynyl-7-fluoro-1-naphthyl)-8-fluoro-pyrido[4,3-d]pyrimidin-2-yl]oxymethyl]-1,2,3,5,6,7-hexahydropyrrolizin-3-yl]methyl4-[[1-[1-(2,6-dioxo-3-piperidyl)-3-methyl-2-oxo-benzimidazol-5-yl]azetidin-3-yl]oxymethyl]piperidine-1-carboxylate]	< 100 nM
C#Cc1c(F)ccc2cccc(-c3ncc4c(N5CC6CCC(C5)N6)nc(OC[C@@]56CCCN5[C@H](COC(=O)N5CC7CCC(C5)C7CN5CCC(c7ccc8c(c7)n(C)c(=O)n8C7CCC(=O)NC7=O)CC5)CC6)nc4c3F)c12 (stereo partly drawn) [Compound 103, [(3S,8S)-8-[[4-(3,8-Diazabicyclo[3.2.1]octan-3-yl)-7-(8-ethynyl-7-fluoro-1-naphthyl)-8-fluoro-pyrido[4,3-d]pyrimidin-2-yl]oxymethyl]-1,2,3,5,6,7-hexahydropyrrolizin-3-yl]methyl8-[[4-[1-(2,6-dioxo-3-piperidyl)-3-methyl-2-oxo-benzimidazol-5-yl]-1-piperidyl]methyl]-3-azabicyclo[3.2.1]octane-3-carboxylate]	< 100 nM

The next lines start with the values.

DC50	Compound
< 100 nM	C#Cc1c(F)ccc2cccc(-c3ncc4c(N5CC6CCC(C5)N6)nc(OC[C@@]56CCCN5[C@H](COC(=O)N5CC(OC7CCN(Cc8ccc9c(c8)n(C)c(=O)n9C8CCC(=O)NC8=O)CC7)C5)CC6)nc4c3F)c12 (stereo partly drawn) [Compound 89, [(3S,8S)-8-[[4-(3,8-Diazabicyclo[3.2.1]octan-3-yl)-7-(8-ethynyl-7-fluoro-1-naphthyl)-8-fluoro-pyrido[4,3-d]pyrimidin-2-yl]oxymethyl]-1,2,3,5,6,7-hexahydropyrrolizin-3-yl]methyl 3-[[1-[[1-(2,6-dioxo-3-piperidyl)-3-methyl-2-oxo-benzimidazol-5-yl]methyl]-4-piperidyl]oxy]azetidine-1-carboxylate]
< 100 nM	C#Cc1c(F)ccc2cccc(-c3ncc4c(N5C[C@H]6CC[C@@H](C5)N6)nc(OC[C@@]56CCCN5[C@H](COC(=O)N5CCC(CC7CCN(c8ccc9c(c8)n(C)c(=O)n9C8CCC(=O)NC8=O)CC7)CC5)CC6)nc4c3F)c12 (stereo partly drawn) [Compound 90, ((3S,7aS)-7a-(((4-((1R,5S)-3,8-Diazabicyclo[3.2.1]octan-3-yl)-7-(8-ethynyl-7-fluoronaphthalen-1-yl)-8-fluoropyrido[4,3-d]pyrimidin-2-yl)oxy)methyl)hexahydro-1H-pyrrolizin-3-yl)methyl4-((1-(1-(2,6-dioxopiperidin-3-yl)-3-methyl-2-oxo-2,3-dihydro-1H-benzo[d]imidazol-5-yl)piperidin-4-yl)methyl)piperidine-1-carboxylate]
< 100 nM	C#Cc1c(F)ccc2cccc(-c3ncc4c(N5CC6CCC(C5)N6)nc(OC[C@@]56CCCN5[C@H](COC(=O)N5CCC(OCC#CC#Cc7ccc8c(c7)n(C)c(=O)n8C7CCC(=O)NC7=O)CC5)CC6)nc4c3F)c12 (stereo partly drawn) [Compound 92, [(3S,8S)-8-[[4-(3,8-Diazabicyclo[3.2.1]octan-3-yl)-7-(8-ethynyl-7-fluoro-1-naphthyl)-8-fluoro-pyrido[4,3-d]pyrimidin-2-yl]oxymethyl]-1,2,3,5,6,7-hexahydropyrrolizin-3-yl]methyl 4-[5-[1-(2,6-dioxo-3-piperidyl)-3-methyl-2-oxo-benzimidazol-5-yl]penta-2,4-diynoxy]piperidine-1-carboxylate]
< 100 nM	C#Cc1c(F)ccc2cccc(-c3ncc4c(N5CC6CCC(C5)N6)nc(OC[C@@]56CCCN5[C@H](COC(=O)N5CCC(OCC#CC#Cc7cccc8c7n(C)c(=O)n8C7CCC(=O)NC7=O)CC5)CC6)nc4c3F)c12 (stereo partly drawn) [Compound 93, [(3S,8S)-8-[[4-(3,8-Diazabicyclo[3.2.1]octan-3-yl)-7-(8-ethynyl-7-fluoro-1-naphthyl)-8-fluoro-pyrido[4,3-d]pyrimidin-2-yl]oxymethyl]-1,2,3,5,6,7-hexahydropyrrolizin-3-yl]methyl4-[5-[1-(2,6-dioxo-3-piperidyl)-3-methyl-2-oxo-benzimidazol-4-yl]penta-2,4-diynoxy]piperidine-1-carboxylate]
< 100 nM	C#Cc1c(F)ccc2cccc(-c3ncc4c(N5CC6CCC(C5)N6)nc(OC[C@@]56CCCN5[C@H](COC(=O)N5CCC(CCn7cc(-c8cccc9c8n(C)c(=O)n9C8CCC(=O)NC8=O)nn7)CC5)CC6)nc4c3F)c12 (stereo partly drawn) [Compound 97, [(3S,8S)-8-[[4-(3,8-Diazabicyclo[3.2.1]octan-3-yl)-7-(8-ethynyl-7-fluoro-1-naphthyl)-8-fluoro-pyrido[4,3-d]pyrimidin-2-yl]oxymethyl]-1,2,3,5,6,7-hexahydropyrrolizin-3-yl]methyl4-[2-[4-[1-(2,6-dioxo-3-piperidyl)-3-methyl-2-oxo-benzimidazol-4-yl]triazol-1-yl]ethyl]piperidine-1-carboxylate]
